According to patent publication US20120029054A1, “RNA Interference Mediated Inhibition of GATA Binding Protein 3 (GATA3) Gene Expression Using Short Intefering Nucleic Acid (siNA)” (Merck Sharp & Dohme Corp., priority 2009, published 2012):
[invAb] = inverted abasic unit; m = 2'-O-methyl; r = 2'-OH (RNA); f = 2'-fluoro

What was measured:
[1] = system: GATA3 mRNA; assay: GATA3 mRNA knock-down (Taqman qRT-PCR) after RNAiMax transfection of mouse RAG cells; type: cell-based; settings: 10 nM siNA, 24 hrs, average of 2 experiments
Procedure: RAG (murine; ATCC cat# CCL-142): Cells were cultured at 37° C. in the presence of 5% CO2 and grown in Eagle's Minimum Essential medium with supplemented with 10% of fetal bovine serum, 100 μg/mL of streptomycin, and 100 U/mL penicillin.
(§1) Cells were plated in all wells of a tissue-culture treated, 96-well plate at a final count of 5000 cells/well in 100 μL of the appropriate culture media. The cells were cultured for 24 hours after plating at 37° C. in the presence of 5% CO2.
(§2) After 24 hours, complexes containing siNA and RNAiMax were created as follows: A solution of RNAiMax diluted 33-fold in OPTI-MEM was prepared. In parallel, solutions of the siNAs for testing were prepared to a final concentration of 120 nM in OPTI-MEM. After incubation of RNAiMax/OPTI-MEM solution at room temperature for 5 min, an equal volume of the siNA solution and the RNAiMax solution were added together for each of the siNAs.
(§3) This solution was incubated at room temperature for 20 minutes. After incubation, 20 uL of the solution was added to each of the relevant wells. The final concentration of siNA in each well was 10 nM and the final volume of RNAiMax in each well was 0.3 ul.
(§4) The time of incubation with the RNAiMax-siNA complexes was 24 hours and there was no change in media between transfection and harvesting, unless otherwise indicated.
(§5) RNA was extracted from a 96-well plate using the TaqMan® Gene Expression Cells-to-CT™ Kit (Cat#4399002) with a modified protocol. Briefly, a 60 uL (1 plate) or 110 uL (2 plates) of the Lysis Solution with DNase I was dispensed into each well of the Lysis Buffer Plate (twin.tec full skirt plate). The lysis buffer and stop plates were stored at 4° C. until the cells were washed.
(§6) The plate was spun at 1100 rpm for 5 minutes. The culture medium was aspirated and discarded from the wells of the culture plate. The lysis was performed automatically using a BioMek FX instrument and method. After the Biomek method was completed, the lysis plate was incubated for 2 min. at room temperature. The lysis plate can be stored for 2 hours at 4° C., or at −20° C. or −80° C. for two months.
(§7) Each well of the reverse transcription plate required 10 uL of 2× reverse transcriptase Buffer, 1 uL of 20× reverse transcription enzyme and 2 uL of nuclease-free water. The reverse transcription master mix was prepared by mixing 2× reverse transcription buffer, 20× reverse transcription enzyme mix, and nuclease-free water. 13 uL of the reverse transcription master mix was dispensed into each well of the reverse transcription plate (semi-skirted). A separate reverse transcription plate was prepared for each cell plate. The plate was loaded onto a Biomek NX or Biomek FX Dual-96 and the Biomek method was run. The program is programmed to automatically added 7 uL of lysate from the cell lysis procedure described above into each well of the reverse transcription plate. The plate is sealed and spun on a centrifuge (1000 rpm for 30 seconds) to settle the contents to the bottom of the reverse transcription plate. The plate is placed in a thermocycler at 37° C. for 60 min, 95° C. for 5 min, and 4° C. until the plate is removed from the thermocycler. Upon removal, if not used immediately, the plate was frozen at −20° C.
(§8) A series of probes and primers were used to detect the various mRNA transcripts of the genes of β-Actin (human cell line only), and of GATA3 and GAPDH in mouse and human cell lines. All Taqman probes and primers for the experiments here-in described were supplied as pre-validated sets by Applied Biosystems, Inc. (see Table 2).
(§9) The assays were performed on an ABI 7900 instrument, according to the manufacturer's instructions. A TaqMan Gene Expression Master Mix (provided in the Cells-to-CT™, Applied Biosystems, Cat #4399002) was used. The PCR reactions were carried out at 50° C. for 2 min, 95° C. for 20 min followed by 40 cycles at 95° C. for 15 secs and 60° C. for 1 min. […]

[2] = system: GATA3 mRNA; assay: GATA3 mRNA knock-down (Taqman qRT-PCR) after RNAiMax transfection of human MCF7 cells; screen and IC50 dose response; type: cell-based; settings: 10 nM siNA, MCF7 cells, 24 hrs
Procedure: MCF7 (human; ATCC cat# HTB-22): Cells were cultured at 37° C. in the presence of 5% CO2 and grown in Eagle's Minimum Essential medium with supplemented with fetal bovine serum at a final concentration of 10% and 100 μg/mL of streptomycin and 100 U/mL penicillin.
as §1, §2, §3, §4, §5, §6, §7, §8, §9

| Substance | % KD Mouse [1] | % KD Human ([2]; * Hs00231122_m1 Taqman Assay) | % KD Human ([2]; ** Hs00922328_m1 Taqman Assay) | % KD Human ([2]; average of 3 experiments) |
| --- | --- | --- | --- | --- |
| 30285-DC: GATA3 siNA duplex, human/mouse site 2129: sense B GGucucuAGuGcuGuGAAA TTB (SEQ 123), antisense UUUcAcAGcAcuAGAGAccUU (SEQ 124) (sense GGUCUCUAGUGCUGUGAAATT; antisense UUUCACAGCACUAGAGACCUU; sense: DNA at AGT, 2'-fluoro at CU, [invAb] at 5' end, 3' end, backbone not given here; antisense: sugars from the 5' end rrrfmfmmfmffmmmmmffmm, backbone not given here) | 69 ± 1% | 49 ± 11* % | 52 ± 10** % | – |
| 30255-DC: GATA3 siNA duplex, site 1085: sense B ccGGcAGGAcGAGAAAGAG TTB (SEQ 63), antisense CUCuuucucGuccuGccGGUU (SEQ 64) (sense CCGGCAGGACGAGAAAGAGTT; antisense CUCUUUCUCGUCCUGCCGGUU; sense: DNA at AGT, 2'-fluoro at C, [invAb] at 5' end, 3' end, backbone not given here; antisense: sugars from the 5' end rrrffffffmffffmffmmmm, backbone not given here) | 40 ± 3% | – | – | 26 ± 11% |
| 30246-DC: GATA3 siNA duplex, site 1883: sense B GGGuuAGAGcccuGcucGA TTB (SEQ 45), antisense UCGAGcAGGGcucuAAcccUU (SEQ 46) (sense GGGUUAGAGCCCUGCUCGATT; antisense UCGAGCAGGGCUCUAACCCUU; chemistry not fully specified) | −1 ± 2% | – | – | −6 ± 19% |
| 30279-DC: GATA3 siNA duplex, mouse site 1448: sense B ccuGcGGAcucuAccAuAA TTB (SEQ 111), antisense UUAuGGuAGAGuccGcAGGUU (SEQ 112) (sense CCUGCGGACUCUACCAUAATT; antisense UUAUGGUAGAGUCCGCAGGUU; sense: DNA at AGT, 2'-fluoro at CU, [invAb] at 5' end, 3' end, backbone not given here; antisense: sugars from the 5' end rrrfmmfmmmmfffmfmmmmm, backbone not given here) | 68 ± 4% | – | – | −27 ± 12% |
| 30273-DC: GATA3 siNA duplex, mouse site 1489: sense B cuuAucAAGcccAAGcGAA TTB (SEQ 99), antisense UUCGcuuGGGcuuGAuAAGUU (SEQ 100) (sense CUUAUCAAGCCCAAGCGAATT; antisense UUCGCUUGGGCUUGAUAAGUU; sense: DNA at AGT, 2'-fluoro at CU, [invAb] at 5' end, 3' end, backbone not given here; antisense: chemistry not given here) | 33 ± 1% | – | – | −3 ± 16% |
| 30277-DC: GATA3 siNA duplex, mouse site 1535: sense B cAuccuGcGcGAAcuGucA TTB (SEQ 107), antisense UGAcAGuucGcGcAGGAuGUU (SEQ 108) (sense CAUCCUGCGCGAACUGUCATT; antisense UGACAGUUCGCGCAGGAUGUU; sense: DNA at AGT, 2'-fluoro at CU, [invAb] at 5' end, 3' end, backbone not given here; antisense: sugars from the 5' end rrrfmmfffmfmfmmmmfmmm, backbone not given here) | 26 ± 4% | – | – | −4 ± 7% |
| 30247-DC: GATA3 siNA duplex, site 763: sense B GGGccAcGGuGcAGAGGuA TTB (SEQ 47), antisense UACcucuGcAccGuGGcccUU (SEQ 48) (sense GGGCCACGGUGCAGAGGUATT; antisense UACCUCUGCACCGUGGCCCUU; chemistry not fully specified) | −25 ± 14% | – | – | −7 ± 17% |
| 30282-DC: GATA3 siNA duplex, human/mouse site 2587: sense B cAccAAAAuAAGAAAAGAu TTB (SEQ 117), antisense AUCuuuucuuAuuuuGGuGUU (SEQ 118) (sense CACCAAAAUAAGAAAAGAUTT; antisense AUCUUUUCUUAUUUUGGUGUU; sense: DNA at AGT, 2'-fluoro at CU, [invAb] at 5' end, 3' end, backbone not given here; antisense: sugars from the 5' end rrrfffffffmffffmmfmmm, backbone not given here) | 84 ± 1% | – | – | 46 ± 8% |
| 30249-DC: GATA3 siNA duplex, site 673: sense B cGcAGuAcccGcuGccGGA TTB (SEQ 51), antisense UCCGGcAGcGGGuAcuGcGUU (SEQ 52) (sense CGCAGUACCCGCUGCCGGATT; antisense UCCGGCAGCGGGUACUGCGUU; sense: DNA at AGT, 2'-fluoro at CU, [invAb] at 5' end, 3' end, backbone not given here; antisense: sugars from the 5' end rrrmmfmmfmmmfmffmfmmm, backbone not given here) | −12 ± 2% | – | – | 1 ± 19% |
| 30254-DC: GATA3 siNA duplex, site 619: sense B GGcAGcAcccGGAcAcGcA TTB (SEQ 61), antisense UGCGuGuccGGGuGcuGccUU (SEQ 62) (sense GGCAGCACCCGGACACGCATT; antisense UGCGUGUCCGGGUGCUGCCUU; chemistry not fully specified) | 6 ± 5% | – | – | −27 ± 15% |
| 30275-DC: GATA3 siNA duplex, mouse site 794: sense B GGGcuAcGGuGcAGAGGuA TTB (SEQ 103), antisense UACcucuGcAccGuAGcccUU (SEQ 104) (sense GGGCUACGGUGCAGAGGUATT; antisense UACCUCUGCACCGUAGCCCUU; sense: DNA at AGT, 2'-fluoro at CU, [invAb] at 5' end, 3' end, backbone not given here; antisense: sugars from the 5' end rrrffffmfmffmfmmfffmm, backbone not given here) | 49 ± 7% | – | – | 42 ± 8% |
| 30265-DC: GATA3 siNA duplex, mouse site 2025: sense B GcccGAAAGcGAcAGAucu TTB (SEQ 83), antisense AGAucuGucGcuuucGGGcUU (SEQ 84) (sense GCCCGAAAGCGACAGAUCUTT; antisense AGAUCUGUCGCUUUCGGGCUU; chemistry not fully specified) | 58 ± 0% | – | – | −8 ± 13% |
| 30271-DC: GATA3 siNA duplex, mouse site 1620: sense B GuAcuAcAAGcuucAuAAu TTB (SEQ 95), antisense AUUAuGAAGcuuGuAGuAcUU (SEQ 96) (sense GUACUACAAGCUUCAUAAUTT; antisense AUUAUGAAGCUUGUAGUACUU; chemistry not fully specified) | 70 ± 0% | – | – | 10 ± 11% |
